{
  "source": "paper PMC7730206",
  "about": "“2-Deoxy-D-glucose Promotes Buforin IIb-Induced Cytotoxicity in Prostate Cancer DU145 Cells and Xenograft Tumors” (Molecules, 2020)",
  "key": {"[1]": {"system": "prostate cancer cell line DU145", "assay": "CCK-8 cell viability assay, DU145", "format": "cell-based, human", "procedure": "(§1) Cells were seeded in 96-well plates at a density of 1 × 10^5 cells/mL in medium, and then treated with different concentrations of buforin IIb and 2-DG alone or in combination for 24 h. After treatment, 10 μL CCK-8 was added to each well, and the plates were incubated in the dark at 37 °C for 2 h. Absorbance at 450 nm was measured using a […]1 multifunction microplate reader. Each experiment was performed in triplicate, and cell viability was expressed as a percentage of the control. The drug-drug interactions between buforin IIb and 2-DG were evaluated using the combination index (CI) described by Chou and Talalay, and calculated using Compusyn software (Biosoft). CI values < 1, = 1 or > 1 indicated synergy, additivity, or antagonism, respectively."}, "[2]": {"system": "normal prostatic epithelial WPMY-1 cell line", "assay": "CCK-8 cell viability assay, WPMY-1", "format": "cell-based", "procedure": "as §1"}, "mouse erythrocytes": {"system": "mouse erythrocytes", "assay": "Hemolytic activity assay", "format": "cell-based", "conditions": "mouse RBCs 4% (v/v), 30 min, 37 °C, absorbance 570 nm; different concentrations", "procedure": "The hemolytic assay was conducted using mouse red blood cells (RBCs) as the method described previously. Briefly, erythrocytes were isolated by centrifugation at 1000× g for 10 min, washed three times with PBS, and resuspended at a final concentration of 4% (v/v). After incubating cells with 2-DG and buforin IIb alone or in combination at different concentrations for 30 min at 37 °C, the mixture was centrifuged at 1000× g for 5 min to obtain the supernatant. A volume of 100 μL of supernatant was removed to a new 96-well plate and the absorbance was measured at 570 nm. PBS and 0.1% Triton X-100 were used as agents for 0 and 100% hemolysis, respectively. The percentage of hemolysis was calculated as follows: (Asample − APBS)/(ATritonX-100 − APBS) × 100%, where A is the absorbance. Data are presented as the mean ± standard error of the mean (SEM) of at 4–6 independent experiments."}, "DU145 cells [3]": {"system": "DU145 cells", "assay": "Cell cycle analysis (PI staining, FACS)", "format": "cell-based, human", "conditions": "2-DG 2 mM, buforin IIb 2 μM, alone or in combination, 24 h", "procedure": "Cell cycle analysis was performed using the Cell Cycle Analysis Kit. Briefly, cells were seeded into 6-well culture plates at a density of 3 × 10^5 cells/mL. After treatment with 2-DG (2 mM) and buforin IIb (2 μM) alone or in combination for 24 h, cells were digested by 0.25% trypsin without EDTA, fixed in 70% cold ethanol for 5 h at 4 °C, and then stained with propidium iodide (PI) and RNase A solution for 30 min at 37 °C in the dark. The cell distribution across the cell cycle was analyzed with a FACS Vantage SE flow cytometer."}, "DU145 cells [4]": {"system": "DU145 cells", "assay": "Annexin V-FITC/PI apoptosis flow cytometry", "format": "cell-based, human", "conditions": "2-DG alone (2 mM) compared with PBS control", "procedure": "DU145 cells were seeded (3 × 10^5 cells/mL) into 6-well plates and treated with buforin IIb (2 μM) and 2-DG (2 mM) alone and in combination for 24 h. After collecting and washing with PBS, the cells were re-suspended in 500 μL of binding buffer, stained with FITC-conjugated Annexin V and PI, and incubated on ice in the dark for 10 min. The stained cells were analyzed by flow cytometry, and the percentage of apoptotic cells was calculated using Cell Quest software."}, "DU145 xenograft tumors": {"system": "DU145 xenograft tumors", "assay": "DU145 xenograft tumor experiment", "format": "in vivo, BALB/c nude mice", "conditions": "buforin IIb 5 mg/kg tail vein, 2-DG 400 mg/kg oral gavage, days 1, 2, 3, 6, 9; tumor weight on day 12 vs PBS; n = 5 per group", "source_text": "Male BALB/c nude mice (4-6 weeks old) were obtained from the Model Animal Research Center of Nanjing University. All of the animal experiments were approved by the Institutional Animal Care and Use Committee (IACUC) of the Nanjing Normal University and Jiangsu Association for Laboratory Animal Science. BALB/c nude mice were subcutaneously injected with 3 × 10^6 DU145 cells in the right axillary region. When the tumor volume reached 75 mm^3, nude mice were randomly divided into the following four groups (n = 5 per group): PBS, buforin IIb (5 mg/kg), 2-DG (400 mg/kg), and combination group (5 mg/kg buforin IIb + 400 mg/kg 2-DG). Buforin IIb was injected through the tail vein of mice and 2-DG was administered via oral gavage on days 1, 2, 3, 6, and 9. Body weight and tumor volume were measured three times a week. Mice were sacrificed by isoflurane inhalation followed by cervical dislocation. The tumors were excised and assessed. Tumor volume was calculated using the formula V = ab^2/2, where 'a' and 'b' are the tumor dimensions at the longest and widest points, respectively. On day 12, tumor tissues were collected and weighed. […] PCNA and TUNEL positive cells were quantified by measuring pixels in 10 consecutive fields at 40× magnification. Positive cells were scored manually."}},
  "note": "Entries after “also recorded” stand apart in the source; their conditions may differ.",
  "data": [
    {"compound": "O=CC[C@@H](O)[C@H](O)[C@H](O)CO", "note": "[2-DG, 2-Deoxy-D-glucose]", "values": [
      {"measurement": "effect on DU145 cell viability / growth", "setting": "[1]; 2 mM 2-DG alone", "result": "did not inhibit DU145 cell growth significantly; also recorded: no significant effect on cell viability and apoptosis"},
      {"measurement": "IC50", "setting": "[1]; Homo sapiens, DU-145, CCK8 assay, 24 h, data not shown", "result": 12, "unit": "mM"},
      {"measurement": "cytotoxicity against WPMY-1 cells", "setting": "[2]; 2 mM 2-DG and 2 μM buforin IIb alone or in combination", "result": "no significant cytotoxicity"},
      {"measurement": "inhibition of viability of WPMY-1 cells", "setting": "[2]; 4 mM 2-DG and 4 μM buforin IIb alone or in combination", "result": "No significant inhibition of viability"},
      {"measurement": "effect on viability of WPMY-1 cells", "setting": "[2]; all tested concentrations", "result": "no effect on the viability"},
      {"measurement": "hemolytic activity", "setting": "mouse erythrocytes", "result": "no hemolytic activity"},
      {"measurement": "%G2", "setting": "DU145 cells [3]; PBS 8.15", "result": 7.2, "unit": "%"},
      {"measurement": "%S", "setting": "DU145 cells [3]; PBS 38.08", "result": 28.05, "unit": "%"},
      {"measurement": "S/G2 population", "setting": "DU145 cells [3]; PBS control 46.23%", "result": 35.25, "unit": "%"},
      {"measurement": "G0/G1 population (%G1)", "setting": "DU145 cells [3]; PBS control 53.7%", "result": 64.76, "unit": "%"},
      {"measurement": "induction of apoptosis", "setting": "DU145 cells [4]", "result": "did not induce DU145 cell apoptosis"},
      {"measurement": "tumor growth inhibition rate", "setting": "DU145 xenograft tumors", "result": 39.53, "unit": "%"}
    ]}
  ]
}
